Assay results reported in US6569996B1, “Antibody that specifically binds to the cadherin-5 cell adhesion recognition sequence” (Adherex Technologies, Inc., priority 1998, dated 2003).

Key:
[1] = test system: MDA-MB-231 human breast cancer cells; experiment: Disruption of human breast cancer cell adhesion (phase contrast microscopy); assay type: cell-based; conditions: 100 μl of 10 mg/ml peptide stock added to 1 ml DMEM containing 5% serum; for cell morphology and attachment to the substratum: after 24 hours, cells express cadherin-11 (OB-cadherin) but not N-cadherin or E-cadherin
Experimental: MDA-MB-231 human breast cancer cells (Lombardi Cancer Research Center, Washington, D.C.) were used in these experiments. They express cadherin-11 (also known as OB-cadherin) but not N-cadherin or E-cadherin. The cells were plated (˜50.000 cells) on glass coverslips and cultured for 24 hours in DMEM containing 5% serum. Peptides (N-Ac-IFVIDDKSG-NH2 (SEQ ID NO:85) and H-IFVIDDKSG-OH (SEQ ID NO:85)) were dissolved in sterile water (10 mg/ml), and 100 μl of each peptide stock solution was added to 1 ml of DMEM containing 5% serum. Control cells had 100 μl of water added to the medium. Cells were monitored by phase contrast microscopy. After 24 hours cells were fixed in formaldehyde. […] The amino acid sequence of this peptide is identical to that which is found in the first extracellular domain of OB-cadherin.

[2] = test system: Human umbilical vein endothelial cells; experiment: Disruption of endothelial cell adhesion (VE-cadherin immunolabeling); assay type: cell-based
Experimental: Human umbilical vein endothelial cells were cultured using standard procedures (see Ichikawa et al., Amer. J. Physiol. 273 (Gastrointest. Liver Physiol. 36): […], 1997). Cells were maintained in EGM (Clonetics, San Diego, Calif.) and used at P2 for all experiments. Endothelial identity was established by Dil-LDL and factor VIII staining.
The cells were cultured on glass coverslips. Monolayers were exposed to peptides at a concentration of 75 μg/mL for 60 minutes. The cells were then fixed with 95% ethanol for 30 minutes at 4° C., followed by acetone for one minute and left to air dry at room temperature. Primary antibody for VE-cadherin (Immunotech, MarseiIles, France; 1:250) was added for one hour at 37° C. Coverslips were then washed with 0.1% milk/PBS solution three times for five minutes each. Secondary antibody (1:250), goat anti-rabbit FITC (Zymed, San Francisco, Calif.) was incubated at 37° C. for one hour. Coverslips were again washed with 0.1% milk/PBS solution three times for five minutes each. Coverslips were mounted with anti-quenching solution (1 mg/mL phenylenediamine (Sigma, St. Louis, Mo.) in 50% glycerol, 50% PBS). All photographs were taken at 400× and 1000× with exposure times of 12 seconds.

| Substance | cell morphology and attachment to the substratum [1] | activity relative to similar peptide without the N- and C-terminal functional groups ([2]; 75 μg/mL for 60 minutes, comparison with H-VFRVDAETGD-OH) | effect on endothelial cell adhesion ([2]; 75 μg/mL peptide for 60 minutes, monolayers on glass coverslips, VE-cadherin immunolabel, 400× and 1000×) | effect on cell adhesion ([1]; 24 hours) |
| --- | --- | --- | --- | --- |
| H-IFVIDDKSG-OH | remained flattened and well-attached to the substratum |  |  |  |
| N-Ac-VFRVDAETGD-NH2 |  | substantially greater | disrupts endothelial cell adhesion |  |
| N-Ac-IFVIDDKSG-NH2 | rounded up from each other and were not well-attached to the substratum |  |  | interferes with cell adhesion |
